Consider eleven compounds from patent US10093630B2, “Pyrazole compounds and methods of making and using same” (ABIDE THERAPEUTICS, INC., priority 2014, dated 2018).

Like-named read-outs stand apart in the source and are kept apart here.

Holding throughout (assay): In vitro competitive activity-based protein profiling (gel-based, FP-Rh or HT-01 probe)
Common to all, as to assay type: biochemical

The target in one experiment is T1, MAGL (Mus musculus, UniProt O35678).
T1 construct: Proteomes (mouse brain membrane fraction or cell lysates); from tissue; host or cells: mouse brain membrane fraction (or cell lysates, not specified)
T1 sequence (O35678 1-303): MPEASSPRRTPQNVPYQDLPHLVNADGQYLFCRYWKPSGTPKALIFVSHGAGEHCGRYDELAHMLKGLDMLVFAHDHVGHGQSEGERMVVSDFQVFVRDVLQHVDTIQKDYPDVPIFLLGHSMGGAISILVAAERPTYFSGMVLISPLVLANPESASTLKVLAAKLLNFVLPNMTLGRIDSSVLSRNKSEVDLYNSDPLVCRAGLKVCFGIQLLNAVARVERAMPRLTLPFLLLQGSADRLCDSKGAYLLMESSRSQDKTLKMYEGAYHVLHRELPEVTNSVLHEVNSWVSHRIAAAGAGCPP
Conditions: for inhibition at 1 µM: 1 μM inhibitor; for inhibition at 10 µM: 10 μM inhibitor; for IC50: mouse brain membrane fraction or cell lysates, 30 min preincubation at 37° C., read-out: Mouse (IC50 value, nM) MAGL. The method, boiled down:
(§1)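 Gel-based read-out: fluorescent band intensity after SDS-PAGE reflected remaining hydrolase activity. Inhibitors were preincubated 30 min at 37° C with 1.0 mg/mL mouse brain membrane or lysate proteome before a further 30 min at 37° C with FP-Rh or HT-01 probe.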

A further experiment deals with T2, ABHD6 (Mus musculus, UniProt Q8R2Y0).
T2 construct: Proteomes (mouse brain membrane fraction or cell lysates); from tissue; host or cells: mouse brain membrane fraction (or cell lysates, not specified)
T2 sequence (Q8R2Y0 1-336): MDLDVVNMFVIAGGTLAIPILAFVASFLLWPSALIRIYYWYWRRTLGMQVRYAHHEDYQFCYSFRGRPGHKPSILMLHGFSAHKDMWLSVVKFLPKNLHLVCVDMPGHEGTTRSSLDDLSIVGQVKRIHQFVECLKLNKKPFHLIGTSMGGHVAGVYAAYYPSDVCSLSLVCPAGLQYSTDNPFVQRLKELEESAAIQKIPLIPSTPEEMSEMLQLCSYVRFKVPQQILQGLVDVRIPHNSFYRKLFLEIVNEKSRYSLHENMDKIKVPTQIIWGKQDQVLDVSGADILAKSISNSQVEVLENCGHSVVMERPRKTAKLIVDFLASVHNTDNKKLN
Conditions: for inhibition at 1 µM: 1 μM inhibitor, read-out: % Inhibition at 1 μM, C = ABHD6; for inhibition at 10 µM: 10 μM inhibitor, read-out: % Inhibition at 10 μM, C = ABHD6; for IC50: mouse brain membrane fraction or cell lysates, 30 min preincubation at 37° C., read-out: Mouse (IC50 value, nM) ABHD6. The method, boiled down:
as §1

In another experiment the target is T3, PLA2G7 (Mus musculus, UniProt Q60963).
T3 construct: Proteomes (mouse brain membrane fraction or cell lysates); from tissue; host or cells: mouse brain membrane fraction (or cell lysates, not specified)
T3 sequence (Q60963 22-440): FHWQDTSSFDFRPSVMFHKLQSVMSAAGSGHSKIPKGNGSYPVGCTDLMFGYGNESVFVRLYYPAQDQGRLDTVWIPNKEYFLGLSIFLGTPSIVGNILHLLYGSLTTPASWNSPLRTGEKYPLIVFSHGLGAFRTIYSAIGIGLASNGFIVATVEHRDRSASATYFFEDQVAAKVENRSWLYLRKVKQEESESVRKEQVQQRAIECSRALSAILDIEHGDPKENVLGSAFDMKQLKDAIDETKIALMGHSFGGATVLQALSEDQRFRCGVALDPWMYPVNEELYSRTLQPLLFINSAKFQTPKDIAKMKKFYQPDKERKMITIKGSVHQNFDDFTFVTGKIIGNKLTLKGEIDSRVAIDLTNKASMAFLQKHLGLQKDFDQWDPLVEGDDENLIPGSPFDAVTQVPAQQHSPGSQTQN
As to conditions: for inhibition at 1 µM: 1 μM inhibitor, read-out: % Inhibition at 1 μM, D = PLA2G7; for inhibition at 10 µM: 10 μM inhibitor, read-out: % Inhibition at 10 μM, D = PLA2G7; for IC50: mouse brain membrane fraction or cell lysates, 30 min preincubation at 37° C. The method, boiled down:
as §1

For another experiment, the target named is T4, FAAH (Mus musculus, UniProt O08914).
T4 construct: Proteomes (mouse brain membrane fraction or cell lysates); from tissue; host or cells: mouse brain membrane fraction (or cell lysates, not specified)
T4 sequence (O08914 1-579): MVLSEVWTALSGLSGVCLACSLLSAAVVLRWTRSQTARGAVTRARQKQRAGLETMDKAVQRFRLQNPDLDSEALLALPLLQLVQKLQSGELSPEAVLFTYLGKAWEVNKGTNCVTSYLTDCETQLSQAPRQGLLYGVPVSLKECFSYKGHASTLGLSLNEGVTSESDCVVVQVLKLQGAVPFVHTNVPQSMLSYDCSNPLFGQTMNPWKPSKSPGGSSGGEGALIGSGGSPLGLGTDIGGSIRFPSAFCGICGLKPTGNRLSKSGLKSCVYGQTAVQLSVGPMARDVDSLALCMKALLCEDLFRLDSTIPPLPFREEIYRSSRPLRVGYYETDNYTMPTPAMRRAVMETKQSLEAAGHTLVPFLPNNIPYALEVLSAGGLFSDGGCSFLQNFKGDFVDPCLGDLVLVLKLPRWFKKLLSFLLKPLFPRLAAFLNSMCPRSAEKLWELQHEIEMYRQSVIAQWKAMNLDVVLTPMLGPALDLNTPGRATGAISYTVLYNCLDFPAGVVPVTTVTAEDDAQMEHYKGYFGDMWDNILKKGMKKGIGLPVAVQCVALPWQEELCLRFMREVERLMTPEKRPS
As to conditions: for inhibition at 1 µM: 1 μM inhibitor, read-out: % Inhibition at 1 μM, B = FAAH; for inhibition at 10 µM: 10 μM inhibitor, read-out: % Inhibition at 10 μM, B = FAAH; for IC50: mouse brain membrane fraction or cell lysates, 30 min preincubation at 37° C., read-out: Mouse (IC50 value, nM) FAAH. The method, boiled down: as §1

By inhibition is commonly meant the change of the read-out against control, counted positive when it falls. As to `Cc1cnn(C(=O)N2CCN(Cc3ccc(OCc4ccccc4)cc3)CC2)c1` [Example 20, (4-(4-(Benzyloxy)benzyl)piperazin-1-yl)(4-methyl-1H-pyrazol-1-yl)methanone], the inhibition at 1 µM is 25 to 75% at MAGL, 25 to 75% on ABHD6, less than 25% on PLA2G7 and less than 25% at FAAH. For the same compound, the inhibition at 10 µM is more than 75% at MAGL, more than 75% at ABHD6, 25 to 75% on PLA2G7 and more than 75% at FAAH.

One may read the IC50 as the concentration needed to halve the response being measured. Consider `O=C(N1CCN(Cc2cccc(N3CCOCC3)c2)CC1)n1cc(C(F)(F)F)cn1` [Example 274, (4-(3-Morpholinobenzyl)piperazin-1-yl)(4-(trifluoromethyl)-1H-pyrazol-1-yl)methanone], for which the inhibition at 1 µM on MAGL (gel-based competitive ABPP), at ABHD6 (gel-based competitive ABPP), on PLA2G7 (gel-based competitive ABPP) and at FAAH (gel-based competitive ABPP) was more than 75% in each case. For the same compound, the IC50 is less than 100 nM at MAGL, less than 100 nM on ABHD6, less than 100 nM on PLA2G7 and 100 to 1000 nM on FAAH.

Take `CC(=O)N(C)CCN(C)C(=O)n1cc(C)cn1` [Example 170, N,4-Dimethyl-N-(2-(N-methylacetamido)ethyl)-1H-pyrazole-1-carboxamide]: the inhibition at 10 µM at MAGL, at ABHD6, at PLA2G7 and on FAAH was less than 25% throughout.

On to `Cc1cnn(C(=O)NCCCCCc2ccccc2)c1` [Example 38, 4-Methyl-N-(5-phenylpentyl)-1H-pyrazole-1-carboxamide], for which the inhibition at 10 µM on MAGL, on ABHD6, at PLA2G7 and at FAAH was less than 25% in each case.

In the case of `O=C(N1CCN(Cc2ccc(-c3ccccc3)cc2)CC1)n1cccn1` [Example 22, (4-([1,1′-Biphenyl]-4-ylmethyl)piperazin-1-yl)(1H-pyrazol-1-yl)methanone], the inhibition at 1 µM at MAGL was more than 75%; on ABHD6 it was less than 25%; at PLA2G7, less than 25%; on FAAH it was less than 25%. Besides, the inhibition at 10 µM at MAGL is more than 75%; on ABHD6 it was more than 75%; at PLA2G7, less than 25%; at FAAH, more than 75%.

Turning to `O=C(c1cnn(C(=O)N2CCN(Cc3ccccn3)CC2)c1)N1CCCC1` [Example 81, (4-(Pyridin-2-ylmethyl)piperazin-1-yl)(4-(pyrrolidine-1-carbonyl)-1H-pyrazol-1-yl)methanone], the inhibition at 10 µM on MAGL is less than 25%; at ABHD6, more than 75%; on PLA2G7, more than 75%; at FAAH, more than 75%. For the same compound, the inhibition at 1 µM at ABHD6 and on PLA2G7 was less than 25% each time.

As for `O=C(N1CCCCC1)n1cc(-c2ccccc2)cn1` [Example 136, (4-Phenyl-1H-pyrazol-1-yl)(piperidin-1-yl)methanone], the inhibition at 1 µM on MAGL is less than 25%; at ABHD6, more than 75%; at PLA2G7, more than 75%; on FAAH, more than 75%. Also, the inhibition at 10 µM at MAGL is less than 25%; at ABHD6, more than 75%; at PLA2G7 it was more than 75%; at FAAH, more than 75%.

Regarding `O=C(c1cnn(C(=O)N2CCN(Cc3cncnc3)CC2)c1)N1CCCCC1` [Example 75, Piperidin-1-yl(1-(4-(pyrimidin-5-ylmethyl)piperazine-1-carbonyl)-1H-pyrazol-4-yl)methanone], the inhibition at 1 µM was less than 25% at MAGL, less than 25% at ABHD6, more than 75% at PLA2G7 and less than 25% on FAAH. Further, the inhibition at 10 µM at MAGL was less than 25%; on ABHD6, more than 75%; on PLA2G7 it was more than 75%; on FAAH, less than 25%.

For the compound `Cc1cnn(C(=O)N(C)CCN(C)C(=O)c2ccccc2)c1` [Example 172, N,4-Dimethyl-N-(2-(N-methylbenzamido)ethyl)-1H-pyrazole-1-carboxamide], the inhibition at 10 µM at MAGL, at ABHD6, at PLA2G7 and at FAAH was less than 25% throughout.

Turning to `CCN(Cc1cccc(C)c1)C(=O)n1cc(C(F)(F)F)cn1` [Example 247, N-Ethyl-N-(3-methylbenzyl)-4-(trifluoromethyl)-1H-pyrazole-1-carboxamide], the inhibition at 1 µM is less than 25% on MAGL (gel-based competitive ABPP), 25 to 75% at ABHD6 (gel-based competitive ABPP), less than 25% at PLA2G7 (gel-based competitive ABPP) and more than 75% at FAAH (gel-based competitive ABPP). Further, the inhibition at 10 µM on MAGL (gel-based competitive ABPP) was more than 75%; on ABHD6 (gel-based competitive ABPP), more than 75%; at PLA2G7 (gel-based competitive ABPP), less than 25%; on FAAH (gel-based competitive ABPP), more than 75%. Further, the IC50 at MAGL is 100 to 1000 nM; on ABHD6, 100 to 1000 nM; on PLA2G7, more than 1000 nM; on FAAH, 100 to 1000 nM.

As to `CN1CCN(C(=O)n2cc(C(F)(F)F)cn2)CC1` [Example 151, (4-Methylpiperazin-1-yl)(4-(trifluoromethyl)-1H-pyrazol-1-yl)methanone], the inhibition at 1 µM was less than 25% at MAGL, more than 75% at ABHD6, 25 to 75% at PLA2G7 and more than 75% on FAAH. The inhibition at 10 µM at MAGL, on ABHD6, at PLA2G7 and on FAAH was more than 75% throughout.
